Source: paper PMC3529200 (Bioorganic & medicinal chemistry letters, 2010)

Columns and labels:
CYP2C9 = CYP2C9 (Homo sapiens, UniProt P11712); test: CYP inhibition
[1] = tested on: ca.150 other enzyme and receptor targets; test: selectivity panel of ca.150 other enzyme and receptor targets; details: tested at 10 μM
CYP1A2 = target: T1, CYP1A2 (Homo sapiens, UniProt P05177); test: CYP inhibition
T1 sequence (P05177 1-516): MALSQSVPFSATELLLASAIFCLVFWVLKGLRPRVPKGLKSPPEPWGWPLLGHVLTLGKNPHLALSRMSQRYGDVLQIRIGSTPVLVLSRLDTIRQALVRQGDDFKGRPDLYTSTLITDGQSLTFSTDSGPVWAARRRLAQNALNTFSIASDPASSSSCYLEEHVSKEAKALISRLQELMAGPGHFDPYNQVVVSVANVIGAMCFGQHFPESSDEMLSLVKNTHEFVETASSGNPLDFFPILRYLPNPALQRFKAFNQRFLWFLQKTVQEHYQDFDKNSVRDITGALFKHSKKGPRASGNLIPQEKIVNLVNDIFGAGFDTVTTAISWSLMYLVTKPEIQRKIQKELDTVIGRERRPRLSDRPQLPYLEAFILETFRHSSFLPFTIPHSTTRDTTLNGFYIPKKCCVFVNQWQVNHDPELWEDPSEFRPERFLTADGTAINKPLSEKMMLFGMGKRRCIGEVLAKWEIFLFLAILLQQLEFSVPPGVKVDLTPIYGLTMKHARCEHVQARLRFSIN

CYP3A4 = CYP3A4 (Homo sapiens, UniProt P08684); test: CYP inhibition
Sequence of CYP3A4 (P08684 whole entry): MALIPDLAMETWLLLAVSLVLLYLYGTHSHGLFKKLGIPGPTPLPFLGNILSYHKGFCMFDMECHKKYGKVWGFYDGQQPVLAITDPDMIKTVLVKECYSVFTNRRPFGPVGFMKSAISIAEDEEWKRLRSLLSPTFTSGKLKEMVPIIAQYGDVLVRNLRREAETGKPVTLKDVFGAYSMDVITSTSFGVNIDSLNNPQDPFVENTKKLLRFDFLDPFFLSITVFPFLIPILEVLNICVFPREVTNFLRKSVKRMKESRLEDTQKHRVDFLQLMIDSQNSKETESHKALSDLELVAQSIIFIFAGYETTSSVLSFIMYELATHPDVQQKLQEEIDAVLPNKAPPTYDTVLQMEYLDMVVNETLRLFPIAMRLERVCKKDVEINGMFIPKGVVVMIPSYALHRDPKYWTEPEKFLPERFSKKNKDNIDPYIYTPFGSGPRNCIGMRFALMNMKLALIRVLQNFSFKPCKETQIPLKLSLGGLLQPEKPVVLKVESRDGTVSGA

CYP2C19 = CYP2C19 (Homo sapiens, UniProt P33261); test: CYP inhibition
Sequence of CYP2C19 (P33261 whole entry, the tested form may be a part): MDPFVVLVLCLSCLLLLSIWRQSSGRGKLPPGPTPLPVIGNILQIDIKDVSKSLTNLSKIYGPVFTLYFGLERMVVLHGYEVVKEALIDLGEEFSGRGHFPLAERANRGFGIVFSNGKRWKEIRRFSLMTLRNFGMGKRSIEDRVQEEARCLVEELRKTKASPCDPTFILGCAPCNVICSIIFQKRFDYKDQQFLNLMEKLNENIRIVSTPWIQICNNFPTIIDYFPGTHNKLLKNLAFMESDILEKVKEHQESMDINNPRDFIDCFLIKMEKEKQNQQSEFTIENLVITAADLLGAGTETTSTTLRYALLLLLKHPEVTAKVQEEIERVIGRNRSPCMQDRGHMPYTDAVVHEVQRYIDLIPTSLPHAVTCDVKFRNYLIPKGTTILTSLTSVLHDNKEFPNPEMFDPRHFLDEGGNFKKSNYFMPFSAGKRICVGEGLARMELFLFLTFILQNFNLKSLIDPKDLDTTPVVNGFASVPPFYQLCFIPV

[2] = tested on: AngII-induced hypertension; test: AngII-infused rat model of hypertension; format: in vivo, Sprague-Dawley rats; details: 50 mg/kg orally twice daily
[3] = early animal and human dose range finding toxicology studies; cited from earlier work
CYP2C = test: CYP inhibition
[4] = tested on: impaired glucose tolerance; test: diet induced-obesity; format: in vivo, C57Bl/6 mice; details: 100 mg/kg oral twice a day, after 4 weeks, ip glucose 2 g/kg 4 hours after dose
dog pharmacokinetics = details: up to 500 mg/kg in dogs
CYP2J = test: CYP inhibition
[5] = pharmacokinetics, species not specified; details: in vivo
[6] = cynomolgus monkey pharmacokinetics; details: up to 180 mg/kg in cynomolgus monkeys
Caco-2 monolayer = Caco-2 monolayer permeability
CYP2B6 = target: T2, CYP2B6 (Homo sapiens, UniProt P20813); test: CYP inhibition
T2 sequence (P20813 1-491): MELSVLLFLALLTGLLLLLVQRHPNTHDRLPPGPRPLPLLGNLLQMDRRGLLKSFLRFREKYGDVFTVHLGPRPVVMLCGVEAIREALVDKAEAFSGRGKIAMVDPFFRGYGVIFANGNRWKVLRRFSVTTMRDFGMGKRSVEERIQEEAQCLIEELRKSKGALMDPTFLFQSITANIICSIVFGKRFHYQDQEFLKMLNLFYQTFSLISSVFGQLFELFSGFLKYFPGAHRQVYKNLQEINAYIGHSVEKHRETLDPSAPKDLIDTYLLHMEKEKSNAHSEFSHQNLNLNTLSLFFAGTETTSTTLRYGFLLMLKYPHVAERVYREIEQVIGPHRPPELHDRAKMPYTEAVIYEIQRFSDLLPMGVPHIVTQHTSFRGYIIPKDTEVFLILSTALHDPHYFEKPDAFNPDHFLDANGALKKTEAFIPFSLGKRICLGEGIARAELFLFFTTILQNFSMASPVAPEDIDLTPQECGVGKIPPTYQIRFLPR

rat pharmacokinetics = details: up to 2000 mg/kg in rats

Sequence of CYP2C9 (P11712 whole entry): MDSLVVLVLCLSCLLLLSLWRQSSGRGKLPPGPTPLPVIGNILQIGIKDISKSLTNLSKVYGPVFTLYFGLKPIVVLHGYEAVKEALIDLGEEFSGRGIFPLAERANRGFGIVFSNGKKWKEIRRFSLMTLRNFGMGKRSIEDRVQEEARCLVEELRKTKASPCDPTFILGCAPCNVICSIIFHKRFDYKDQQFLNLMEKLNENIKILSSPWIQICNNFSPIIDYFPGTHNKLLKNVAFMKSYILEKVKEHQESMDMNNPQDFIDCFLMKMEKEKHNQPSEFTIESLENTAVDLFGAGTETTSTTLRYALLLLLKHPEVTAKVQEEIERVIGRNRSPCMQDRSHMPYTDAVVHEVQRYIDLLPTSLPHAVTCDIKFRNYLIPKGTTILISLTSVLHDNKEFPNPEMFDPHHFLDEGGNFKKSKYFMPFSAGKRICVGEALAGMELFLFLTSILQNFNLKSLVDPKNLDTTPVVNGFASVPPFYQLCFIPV

CC(=O)N1CCC(NC(=O)NC23CC4CC(CC(C4)C2)C3)CC1 [Compound 14a, 1-(1-Acetyl-piperidin-4-yl)-3-adamantan-1-yl-urea]
inhibition of CYP2C9 (CYP2C9): No significant inhibition
inhibitory activity against panel of ca.150 other enzyme and receptor targets [1]: no inhibitory activity
inhibition of CYP1A2 (CYP1A2): No significant inhibition
inhibition of CYP3A4 (CYP3A4): No significant inhibition
inhibition of CYP2C19 (CYP2C19): No significant inhibition
effect on diastolic pressure [2]: more modest effect
tolerability [3]: well tolerated
fraction unbound (plasma protein binding): 0.39 to 0.42
inhibition of CYP2C (CYP2C): No significant inhibition
glucose AUC versus vehicle-treated animals [4]: lower
maximal glucose excursion versus vehicle-treated animals [4]: lower
oral exposure (AUC) versus dose (dog pharmacokinetics): increased in approximate proportion to dose
inhibition of CYP2J (CYP2J): No significant inhibition
clearance [5]: relatively moderate to high
half life [5]: short
oral exposure (AUC) versus dose [6]: increased in approximate proportion to dose
permeability across a Caco-2 monolayer (Caco-2 monolayer): highly permeable
inhibition of CYP2B6 (CYP2B6): No significant inhibition
oral exposure (AUC) versus dose (rat pharmacokinetics): increased in approximate proportion to dose
